Assay results: patent US8476197B2, “Aminopropenoates as fungicides” (priority 2009, dated 2013)
Where two headings read alike, the source gives them in different places. Marks after values point to notes of the source that are not given here.

Row | SMILES | Log P (pH 2.7) | Log P (pH 2.3) | Log P (pH 7.5)
1 | CCOC(=O)C(C#N)=C(Nc1cccc(Cl)c1)c1sc(C)nc1C(F)(F)F [Compound 513] | 3.89^[a] | – | –
2 | COC(=O)C(C#N)=C(Nc1ccccc1OC(C)C)c1sc(C)nc1C(F)(F)F [Compound 514] | 3.96^[a] | – | –
3 | COC(=O)C(C#N)=C(Nc1ccc(OC(F)F)cc1)c1sc(C)nc1C(F)(F)F [Compound 515] | 3.31^[a] | – | –
4 | COC(=O)C(C#N)=C(Nc1ccc(SC)cc1)c1sc(C)nc1C(F)(F)F [Compound 516] | 3.53^[a] | – | –
5 | COC(=O)C(C#N)=C(Nc1ccc(Cl)cc1)c1sc(C)nc1C(F)(F)F [Compound 517] | 3.55^[a] | – | –
6 | COC(=O)C(C#N)=C(Nc1cccc(Cl)c1)c1sc(C)nc1C(F)(F)F [Compound 518] | 3.53^[a] | – | –
7 | CCOC(=O)C(C#N)=C(Nc1ccccc1OC(C)C)c1sc(C)nc1C(F)(F)F [Compound 519] | 4.36^[a] | – | –
8 | CCOC(=O)C(C#N)=C(Nc1ccccc1SC)c1cccnc1OC [Compound 522] | – | 3.32^[c]; 3.32^[b] | 3.32^[c]; 3.32^[b]
9 | CCOC(=O)C(C#N)=C(Nc1ccccc1OC(C)C)c1ccsc1Br [Compound 523] | 4.46^[a] | – | –
10 | CCOC(=O)C(C#N)=C(Nc1ccc(SC)cc1)c1ccsc1Br [Compound 524] | 4.01^[a] | – | –
11 | CCOC(=O)C(C#N)=C(Nc1ccc(OC)cc1)c1ccsc1Br [Compound 525] | 3.6^[a] | – | –
12 | CCOC(=O)C(C#N)=C(Nc1ccccc1SC)c1sc(Cl)nc1Cl [Compound 527] | 4.14^[a] | – | –
13 | CCOC(=O)C(C#N)=C(NC1(c2c(F)cccc2F)CC1)c1sc(Cl)nc1Cl [Compound 528] | 4.14^[a] | – | –
14 | CCOC(=O)C(C#N)=C(Nc1ccccc1OC(F)(F)F)c1cccnc1Cl [Compound 529] | – | 3.52 | 3.46
15 | CCOC(=O)C(C#N)=C(NC1(c2c(F)cccc2F)CC1)c1cn(C)nc1C(F)(F)F [Compound 530] | 3.48^[a] | – | –
16 | CCOC(=O)C(C#N)=C(Nc1ccc(OC(F)F)cc1)c1ccsc1Br [Compound 532] | 3.73^[a] | – | –
17 | CCOC(=O)C(C#N)=C(Nc1ccc2ncsc2c1)c1ccsc1Br [Compound 533] | 3.11^[a] | – | –
18 | CCOC(=O)C(C#N)=C(Nc1ccc(Cl)cc1)c1ccsc1Br [Compound 534] | 4.11^[a] | – | –
19 | CCOC(=O)C(C#N)=C(NCc1ccccc1SC)c1ccsc1Br [Compound 535] | 4.01^[a] | – | –
20 | CCOC(=O)C(C#N)=C(Nc1ccc(C(C)C)cc1)c1ccsc1Br [Compound 536] | 4.78^[a] | – | –
21 | CCOC(=O)C(C#N)=C(Nc1cccc(SC)c1)c1ccsc1Br [Compound 537] | 4.04^[a] | – | –

Row | SMILES | Log P (pH 2.7) | Log P (pH 2.3) | Log P (pH 7.5)
22 | CCOC(=O)C(C#N)=C(Nc1cccc(Cl)c1)c1ccsc1Br [Compound 539] | 4.09^[a] | – | –
23 | CCOC(=O)C(C#N)=C(Nc1ccc(N(C)C)cc1)c1ccsc1Br [Compound 540] | 3.76^[a] | – | –
24 | CCOC(=O)C(C#N)=C(NC1(c2c(F)cccc2F)CC1)c1cccnc1Cl [Compound 543] | 3.39^[a] | – | –
25 | CCOC(=O)C(C#N)=C(NC1(c2c(F)cccc2F)CC1)c1cn(C)cc1C(F)(F)F [Compound 547] | 3.85^[a] | – | –
26 | CCOC(=O)C(C#N)=C(Nc1ccccc1SC)c1cn(C)cc1C(F)(F)F [Compound 548] | 3.73^[a] | – | –
27 | CCOC(=O)C(C#N)=C(NC(C)(C)c1ccccc1)c1cn(C)nc1C(F)F [Compound 551] | 3.33^[a] | – | –
28 | CCOC(=O)C(C#N)=C(NCc1ccc(Cl)cc1)c1cn(C)nc1C(F)F [Compound 555] | 3.31^[a] | – | –
29 | CCOC(=O)C(C#N)=C(NC1(c2c(F)cccc2F)CC1)c1cn(C)nc1C(F)F [Compound 559] | 3.17^[a] | – | –
30 | CCOC(=O)C(C#N)=C(NC1(COc2ccccc2)CC1)c1cccnc1Cl [Compound 560] | 3.6^[a] | – | –
31 | CCOC(=O)C(C#N)=C(NC1(COc2ccccc2)CC1)c1cn(C)nc1C(F)F [Compound 561] | 3.37^[a] | – | –
32 | COC(=O)C(C#N)=C(NC(C)C(N)=O)c1cccnc1Cl (centres unmarked) [Compound 563] | – | – | 1.18
33 | COC(=O)C(C#N)=C(NCC(N)=O)c1cccnc1Cl [Compound 569] | – | 1.14 | 0.94
34 | COC(=O)C(C#N)=C(NC(CO)C(N)=O)c1cccnc1Cl (centres unmarked) [Compound 570] | – | 0.97 | 0.79
35 | COC(=O)C(C#N)=C(NC(C(N)=O)C(C)C)c1cccnc1Cl (centres unmarked) [Compound 572] | – | – | 1.58
36 | COC(=O)C(C#N)=C(NC(C)CSC)c1cccnc1Cl (centres unmarked) [Compound 575] | – | – | 2.38
37 | CCSCC(C)NC(=C(C#N)C(=O)OC)c1cccnc1Cl (centres unmarked) [Compound 577] | – | – | 2.72
38 | COC(=O)C(C#N)=C(NC(C(=O)OC)C(C)C)c1cccnc1Cl (centres unmarked) [Compound 580] | – | – | 2.56
39 | COC(=O)C(NC(=C(C#N)C(=O)OCC(F)(F)F)c1cccnc1Cl)C(C)C (centres unmarked) [Compound 581] | – | – | 3.14
40 | CCOC(=O)C(C#N)=C(NC(CC)C(=O)OC)c1cccnc1Cl (centres unmarked) [Compound 582] | – | – | 2.27
41 | CSCC(C)NC(=C(C#N)C(=O)OCC(F)(F)F)c1cccnc1Cl (centres unmarked) [Compound 585] | – | – | 2.98
42 | CCOC(=O)C(C#N)=C(NC(C)CSCC)c1cccnc1Cl (centres unmarked) [Compound 586] | – | – | 3.06

Row | SMILES | Log P (pH 2.7) | Log P (pH 2.3) | Log P (pH 7.5)
43 | CCOC(=O)C(C#N)=C(NC(C)CSC)c1cccnc1Cl (centres unmarked) [Compound 593] | – | – | 2.71
44 | CCOC(=O)C(C#N)=C(NC(C)CN(C)C)c1conc1C (centres unmarked) [Compound 594] | 0.76^[a] | – | –
45 | CCOC(=O)C(C#N)=C(NC(C)C(N)=O)c1conc1C (centres unmarked) [Compound 596] | 1.41^[a] | – | –
46 | COC(=O)C(C#N)=C(NC(C)C(N)=O)c1cn(C)nc1C(F)F (centres unmarked) [Compound 598] | 1.3^[a] | – | –
47 | CCOC(=O)C(C#N)=C(NC(C)C(=O)NC)c1cn(C)nc1C(F)F (centres unmarked) [Compound 599] | 1.66^[a] | – | –
48 | CNC(=O)C(C)NC(=C(C#N)C(=O)OC)c1cn(C)nc1C(F)F (centres unmarked) [Compound 601] | 1.38^[a] | – | –
49 | CCOC(=O)C(C#N)=C(NC(C)CN(C)C)c1cn(C)nc1C(F)(F)F (centres unmarked) [Compound 602] | 1.36^[a] | – | –
50 | CCOC(=O)C(C#N)=C(NCC(C)N)c1c(C)nn(C)c1Cl (centres unmarked) [Compound 603] | 0.96^[a] | – | –
51 | CCOC(=O)C(C#N)=C(NC(C)CN(C)C)c1c(C)nn(C)c1Cl (centres unmarked) [Compound 605] | 1.13^[a] | – | –
52 | CCOC(=O)C(C#N)=C(NC(C)C(=O)NC)c1c(C)nn(C)c1Cl (centres unmarked) [Compound 606] | 1.7^[a] | – | –
53 | CCOC(=O)C(C#N)=C(NC(C)C(N)=O)c1c(C)nn(C)c1Cl (centres unmarked) [Compound 607] | 1.58^[a] | – | –
54 | CCOC(=O)C(C#N)=C(NC(C)CN(C)C)c1sccc1C(F)(F)F (centres unmarked) [Compound 608] | 1.63^[a] | – | –
55 | CCOC(=O)C(C#N)=C(NCC(C)N)c1sccc1C(F)(F)F (centres unmarked) [Compound 609] | 1.42^[a] | – | –
56 | CCOC(=O)C(C#N)=C(NC(C)C(N)=O)c1sccc1C(F)(F)F (centres unmarked) [Compound 610] | 2.07^[a] | – | –
57 | CCOC(=O)C(C#N)=C(NC(C)C(N)=O)c1sccc1Br (centres unmarked) [Compound 611] | 1.9^[a] | – | –
58 | CCOC(=O)C(C#N)=C(NC(C)C(=O)NC)c1sccc1Br (centres unmarked) [Compound 612] | 2.07^[a] | – | –
59 | CCOC(=O)C(C#N)=C(NC(C)CN(C)C)c1ccsc1Br (centres unmarked) [Compound 613] | 1.44^[a] | – | –
60 | CCOCC(C)NC(=C(C#N)C(=O)OCC)c1cc(C)oc1C (centres unmarked) [Compound 617] | 3.42^[a] | – | –
61 | CCOC(=O)C(C#N)=C(NC1(C(=O)OC(C)CC)CC1)c1cc(C)oc1C (centres unmarked) [Compound 618] | 3.94^[a] | – | –
